This is an account of results in ChEMBL document CHEMBL1201862, “PubChem BioAssay data set” (2004).

Holding throughout (assay): inhibition of tumour cell growth, NCI panel, 48 h
Assay [1] has as its system MDA-N.
In assay [2] the test system is Malme-3M.
For assay [3], the system named is CCRF-CEM.
Assay [4] concerns NCI-H23.
The test system of assay [5] is U-251.
For assay [6], the system named is MDA-MB-231.
Assay [7] deals with OVCAR-5.
Assay [8] deals with UACC-257.
Assay [9] deals with SF-539.
Assay [10] has as its system SW-620.
Assay [11] relates to NCI-H460.
The subject of assay [12] is A498.
Assay [13] has as its system HT-29.
Assay [14] concerns ACHN.
Assay [15] deals with K562.
The subject of assay [16] is NCI-H522.
Assay [17] has as its system T47D.
The subject of assay [18] is MDA-MB-435.
The test system of assay [19] is 786-0.
Assay [20] relates to HOP-62.

Structures are written as SMILES.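 Results reflect a 48-hour exposure of cells in 96-well plates to compound at five concentrations. GI50 = concentration required for 50% inhibition of growth.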 Activity calls are given as the source filed them. Cut-off read from the data, not from the text of the source: active = GI50 up to about 1.1 µM and inactive = higher.

For the molecule `N#C[BH2-][n+]1cn(C2CC(OP(=O)(O)OCC3OC(n4ccc(N)nc4=O)CC3O)C(CO)O2)c2nc(N)[nH]c(=O)c21` (stereo unspecified), the GI50 in assay [1], in assay [2], in assay [3], in assay [4], in [5] and in assay [6] was > 100 µM (inactive) throughout. In addition, the GI50 in [7], in [8], in [9], in [10], in assay [11] and in assay [12] was > 100 µM (inactive) in each case. Further, the GI50 in assay [13], in assay [14], in assay [15], in [16], in assay [17] and in assay [18] was > 100 µM (inactive) in each case. Besides, the GI50 in assay [19] and in [20] was > 100 µM (inactive) throughout.

As to `CC1OC(OC2C(OC(=O)[C@]34CCC(C)(C)C[C@H]3C3=CC[C@@H]5[C@@]6(C)CC[C@H](OC7OC(CO)C(O)C(O)C7OC7OC(CO)C(O)C(O)C7O)C(C)(C)[C@@H]6CC[C@@]5(C)[C@]3(C)CC4)OCC(O)C2O)C(O)C(OC2OCC(O)C(O)C2O)C1OC1OCC(O)C(OC2OCC(O)C(O)C2O)C1O` (stereo partly specified), the GI50 in [1] is 2.27 µM (inactive); in assay [2] it was 4.46 µM (inactive); in assay [3], 22.3 µM (inactive); in assay [4], 6.37 µM (inactive); in assay [5] it was 18.2 µM (inactive); in assay [6] it was 7.6 µM (inactive). Moreover, the GI50 was 8.55 µM (inactive) in assay [7]; 3.78 µM (inactive) in [8]; 67.8 µM (inactive) in [9]; 15.7 µM (inactive) in [10]; 69 µM (inactive) in [11]; 2.24 µM (inactive) in assay [12]. In addition, the GI50 is 4.23 µM (inactive) in assay [13]; 9.4 µM (inactive) in assay [14]; 6.55 µM (inactive) in [15]; 3.19 µM (inactive) in assay [16]; 14.7 µM (inactive) in [17]; 2.26 µM (inactive) in assay [18]. The results for the GI50 in assay [19] and in [20] were 12.2 µM (inactive) and 14 µM (inactive), respectively.

Consider `COc1ccc2[nH]c3c(C)c4c(c(C)c3c2c1)CN(C)C=C4`, for which the GI50 in [1] was 15 µM (inactive); in [2] it was 1.21 µM (inactive); in assay [3], 3.76 µM (inactive); in assay [4], 0.424 µM (active); in assay [5], 0.219 µM (active); in [6], 12.1 µM (inactive). Also, the GI50 is 7.57 µM (inactive) in assay [7]; 2.68 µM (inactive) in assay [8]; 0.366 µM (active) in [9]; 1.35 µM (inactive) in [10]; 1.32 µM (inactive) in [11]; 1.36 µM (inactive) in [12]. Moreover, the GI50 was 3.93 µM (inactive) in [13]; 13.2 µM (inactive) in assay [14]; 3.44 µM (inactive) in assay [15]; 1.2 µM (inactive) in [16]; 2.07 µM (inactive) in assay [17]; 21.2 µM (inactive) in assay [18]. Further, the GI50 in assay [19] is 0.191 µM (active); in assay [20] it was 0.679 µM (active).

With `CCC/C(Cl)=N/OC(=O)Nc1cc(C(F)(F)F)ccc1OC`, the GI50 in [1] is 12.1 µM (inactive); in [2] it was 2.92 µM (inactive); in assay [3] it was 1.91 µM (inactive); in assay [4], 18.7 µM (inactive); in assay [5], 17.7 µM (inactive); in assay [6], 13.1 µM (inactive). Further, the GI50 in assay [7] is 17.6 µM (inactive); in [8], 16.5 µM (inactive); in assay [9], 15.3 µM (inactive); in assay [10], 3.55 µM (inactive); in [11], 19.5 µM (inactive); in [12], 15.1 µM (inactive). In addition, the GI50 in assay [13] is 20.7 µM (inactive); in assay [14], 13.2 µM (inactive); in [15], 1.79 µM (inactive); in assay [16], 1.56 µM (inactive); in assay [17], 6.44 µM (inactive); in [18], 13.4 µM (inactive). In addition, the GI50 was 6.05 µM (inactive) in assay [19] and 18.1 µM (inactive) in [20].

In the case of `Fc1cc(-c2cc(-c3ccccc3)no2)c(Cl)cc1Cl`, the GI50 in assay [1] was 16.1 µM (inactive); in assay [2] it was 19.2 µM (inactive); in assay [3], 10.7 µM (inactive); in assay [4], 14 µM (inactive); in [5] it was 10.3 µM (inactive); in assay [6], 14.1 µM (inactive). The GI50 in [7] was 1.29 µM (inactive); in assay [8] it was > 56.8 µM (inactive); in [9] it was > 12.4 µM (inactive); in assay [10], 20.9 µM (inactive); in [11], 16.7 µM (inactive); in assay [12] it was > 33 µM (inactive). The GI50 was 15.8 µM (inactive) in assay [13]; > 35.2 µM (inactive) in assay [14]; 29.4 µM (inactive) in assay [15]; 14.9 µM (inactive) in assay [16]; 14 µM (inactive) in assay [17]; 11.4 µM (inactive) in assay [18]. The figures for the GI50 in [19] and in assay [20] were 15.5 µM (inactive) and 22.7 µM (inactive), respectively.

For the molecule `COc1cc(/C=C/C(=O)OCC23CC[C@@]4(C(=O)O)CCC(C)[C@H](C)C4C2=CCC2[C@@]4(C)CC[C@H](O)C(C)(C)C4CC[C@]23C)ccc1O` (stereo partly specified), the GI50 was 24.3 µM (inactive) in [1]; 11.9 µM (inactive) in assay [2]; 4.59 µM (inactive) in assay [3]; 3.89 µM (inactive) in assay [4]; 27.9 µM (inactive) in assay [5]; 46.3 µM (inactive) in [6]. Moreover, the GI50 in assay [7] is 21.7 µM (inactive); in [8] it was 17.7 µM (inactive); in assay [9], 14.7 µM (inactive); in assay [10], 37.7 µM (inactive); in assay [11], 11.4 µM (inactive); in assay [12], 32.4 µM (inactive). Besides, the GI50 in [13] was 20.4 µM (inactive); in assay [14] it was 3.05 µM (inactive); in assay [15] it was 27 µM (inactive); in assay [16], 3.98 µM (inactive); in assay [17], 48.5 µM (inactive); in assay [18] it was 24.5 µM (inactive). Besides, the GI50 in [19] is 11 µM (inactive); in assay [20] it was 13.4 µM (inactive).

On to `CN(C)CC1CCCCCCCCCC(CN(C)C)C1=O` (stereo unspecified), for which the GI50 in assay [1] was 5.62 µM (inactive); in assay [2], > 35.2 µM (inactive); in [3], 12 µM (inactive); in assay [4], > 27.6 µM (inactive); in assay [5] it was > 37.5 µM (inactive); in [6], 17.3 µM (inactive). For the same molecule, the GI50 in assay [7] is > 49.1 µM (inactive); in assay [8], 23.1 µM (inactive); in [9], > 27.7 µM (inactive); in assay [10] it was > 21.2 µM (inactive); in assay [11] it was > 36.8 µM (inactive); in assay [12] it was > 28.4 µM (inactive). The GI50 is 14.3 µM (inactive) in assay [13]; > 31 µM (inactive) in assay [14]; 2.7 µM (inactive) in assay [16]; 7.06 µM (inactive) in [17]; 4.94 µM (inactive) in assay [18]; > 20.6 µM (inactive) in assay [19]. Also, the GI50 in [20] was > 44 µM (inactive).

`Cc1ccc2nnc(NS(=O)(=O)c3cc(C)c(Cl)cc3S)n2n1`: the GI50 in [1], in assay [2], in assay [3], in assay [5], in assay [6] and in [7] was > 100 µM (inactive) each time. In addition, the GI50 in [8], in assay [9], in assay [10], in [11], in assay [12] and in [13] was > 100 µM (inactive) each time. The GI50 in assay [14], in assay [15], in assay [16], in assay [17], in assay [18] and in assay [19] was > 100 µM (inactive) throughout. For the same molecule, the GI50 in [20] is > 100 µM (inactive).

Take `Cc1cc(C#N)c(Nc2ccc(F)cc2[N+](=O)[O-])s1`: the GI50 in [1] was > 100 µM (inactive); in assay [2] it was 70.6 µM (inactive); in [3], > 100 µM (inactive); in [4] it was > 100 µM (inactive); in [5], 26.8 µM (inactive); in [6], 21.5 µM (inactive). The GI50 was > 100 µM (inactive) in assay [7]; > 100 µM (inactive) in assay [8]; 80.7 µM (inactive) in assay [9]; > 100 µM (inactive) in assay [10]; > 100 µM (inactive) in assay [11]; > 100 µM (inactive) in [12]. Also, the GI50 was 83.8 µM (inactive) in assay [14]; > 100 µM (inactive) in assay [15]; > 100 µM (inactive) in assay [16]; > 100 µM (inactive) in assay [17]; > 100 µM (inactive) in [18]; 54.5 µM (inactive) in assay [19]. Moreover, the GI50 in [20] is 30.3 µM (inactive).

In the case of `COc1ccc(C2(C3c4cc(OC)c(OC)cc4CCN3C)SCCCS2)cc1O` (stereo unspecified), the GI50 in assay [1], in [2], in assay [3], in [4], in [5] and in assay [6] was > 100 µM (inactive) throughout. Also, the GI50 in assay [7], in assay [8], in assay [9], in assay [10], in assay [11] and in [12] was > 100 µM (inactive) each time. The GI50 was 49.3 µM (inactive) in assay [13]; 95.1 µM (inactive) in assay [15]; 41.7 µM (inactive) in [16]; > 100 µM (inactive) in assay [17]; > 100 µM (inactive) in [18]; > 100 µM (inactive) in assay [19]. In addition, the GI50 in assay [20] is > 100 µM (inactive).
